The test system of series [1] is biotinylated AP-neuroligin-1 on hippocampal neurons. The experiment in a line: AP-neuroligin-1 clustering in hippocampal neurons labeled with avidin. Particulars: after a two hour incubation at 37° C. It counts as cell-based, rat. On the procedure: HeLa cells are grown in Dulbecco's Modified Eagle Medium (DMEM) with 10% Fetal Calf Serum, 50 U/mL penicillin and 50 μg/mL streptomycin. HeLa stably expressing AP-CFP-TM or Ala-CFP-TM have been previously described (Howarth, M. et al., Proc. Natl. Acad. Sci. USA 102: 7583-7588, 2005). Dissociated primary neuronal cultures are prepared from Embryonic Day 18 or 19 (E18/19) rats and transfected with Lipofectamine 2000 at DIV6 as in Levinson et al. (Levinson, J. N. et al. J. Biol. Chem. 280: 17312-17319, 2005). […]
Images of HeLa cells are collected on a Zeiss Axiovert 200M inverted epifluorescence microscope using a 40× oil-immersion lens and a MicroMAX CCD camera (Roper Scientific; Tucson, Ariz.). CFP (420DF20 excitation, 450DRLP dichroic, 475DF40 emission) and Alexa568 (560DF20 excitation, 585DRLP dichroic, 605DF30 emission) images are collected and analyzed using OpenLab software (Improvision; Lexington, Mass.). Fluorescence images are background-corrected. […] Images are scaled to 16 bits and analyzed in Northern Eclipse (Empix Imaging; Ontario, Canada) with user-written software. […] Results are then calculated in terms of clusters per micrometer of dendrite. For assessment of pre-synaptic terminals, clusters are determined as before and average grey levels of clusters are compared between transfected dendrites and untransfected dendrites within the same field of view. […]

The subject of series [2] is biotinylated AP-CFP-TM on HeLa cells. The experiment in a line: Staining of biotinylated AP-CFP-TM on HeLa with Alexa Fluor 568-conjugated avidins. It counts as cell-based. The conditions noted are these: avidin, Alexa Fluor 568 conjugate. Here is the method: Enzymatic biotinylation and imaging of HeLa transfectants are performed as previously described (Howarth, M. et al., Proc. Natl. Acad. Sci. USA 102: 7583-7588, 2005), except instead of 10 μM biotin and 1 mM ATP, we add 10 μM biotin-AMP (synthesized according to Coleman and Huang; Coleman, T. M. and Huang, F. Chem. Biol. 9: 1227-1236, 2002) to give equivalent biotinylation but minimizing the risk of purinoreceptor activation by ATP (Rathbone, M. P. et al., Prog. Neurobiol. 59: 663-690, 1999). […] Biotinylation of neurons is performed at day in vitro (DIV) 8 in Hanks' Balanced Salt Solution (HBSS) (Invitrogen) with 0.2 μM biotin ligase and 10 μM biotin-AMP for 5 min at 37° C. […] Neurons are washed with NeuroBasal media (Invitrogen) supplemented with B-27 (Invitrogen), 50 U/mL penicillin, 50 μg/mL streptomycin, and 0.2 mM L-glutamine and chased in the same medium for 0 or 2 hr at 37° C. Cells are then fixed in −20° C. methanol. There was no signal from wild-type avidin labeling if neurons were instead transfected with Ala-neuroligin-1 containing a point mutation in AP, confirming the specificity of labeling. […]
Images of HeLa cells are collected on a Zeiss Axiovert 200M inverted epifluorescence microscope using a 40× oil-immersion lens and a MicroMAX CCD camera (Roper Scientific; Tucson, Ariz.). CFP (420DF20 excitation, 450DRLP dichroic, 475DF40 emission) and Alexa568 (560DF20 excitation, 585DRLP dichroic, 605DF30 emission) images are collected and analyzed using OpenLab software (Improvision; Lexington, Mass.). Fluorescence images are background-corrected. […] Images are scaled to 16 bits and analyzed in Northern Eclipse (Empix Imaging; Ontario, Canada) with user-written software. […] Results are then calculated in terms of clusters per micrometer of dendrite. For assessment of pre-synaptic terminals, clusters are determined as before and average grey levels of clusters are compared between transfected dendrites and untransfected dendrites within the same field of view. […] “n” represents the number of transfected neurons for which clusters were measured. […]

The conditions of series [3]: literature value; read-out: Kd for biotin, reported; cited from earlier work.
For the next series, the system named is biotinylated cells. The series is described as follows: Binding of N23A, S27D streptavidin to biotinylated cells. It is filed as cell-based.

On to “wild-type avidin: Wild-type avidin tetramer of four wild-type monomers (SEQ ID NO:17) [reference compound]”, for which the “staining pattern of labeled AP-neuroligin-1” value in series [1] is given as “distinct aggregates”. The “Alexa staining of biotinylated AP-CFP-TM” value in series [2] was “detected equally well”.
One may read the Kd as the equilibrium constant for the complex coming apart. On to “N23A, S27D: Streptavidin double mutant, still a tetramer, one of the weakest reported affinities for biotin”, for which the Kd in series [3] was 71 µM. The “binding to biotinylated cells” value in the series on biotinylated cells was “still bound to biotinylated cells”.

The record behind these values is US20070105162A1, “Monovalent avidin and streptavidin compositions” (Massachusetts Institute of Technology, priority 2005, published 2007).
